Experimental data as given in ChEMBL document CHEMBL1151012, “Synthesis and anti-pseudomonal activity of new 2-isocephems with a dihydroxypyridone moiety at C-7” (1994).
Values after ≈ are worked out from the molar mass of the structure shown.

Legend:
Pseudomonas aeruginosa [1] = experiment: In vitro antibacterial activity against AZT resistant Pseudomonas aeruginosa 47 was determined; type: functional
Pseudomonas aeruginosa [2] = experiment: (§1) Protective effect on systemic infection in mice caused by clinically isolated Pseudomonas aeruginosa 58; type: functional
Mus musculus [3] = organism: Mus musculus; experiment: as §1; type: functional
Mus musculus [4] = organism: Mus musculus; experiment: Protective effect on systemic infection in mice caused by clinically isolated Pseudomonas aeruginosa 67; type: functional
Pseudomonas aeruginosa [5] = experiment: In vitro antibacterial activity against CAZ resistant Pseudomonas aeruginosa 59 was determined; type: functional
Pseudomonas aeruginosa [6] = experiment: In vitro antibacterial activity against Pseudomonas aeruginosa ATCC 10145 bacteria was determined; type: functional
Pseudomonas aeruginosa [7] = experiment: In vitro antibacterial activity against AZT resistant Pseudomonas aeruginosa 69 was determined; type: functional
Pseudomonas aeruginosa [8] = experiment: In vitro antibacterial activity against Pseudomonas aeruginosa NCTC-10490 bacteria was determined; type: functional
Pseudomonas aeruginosa [9] = experiment: In vitro antibacterial activity against CAZ resistant Pseudomonas aeruginosa 56 was determined; type: functional
Pseudomonas aeruginosa [10] = experiment: In vitro antibacterial activity against CAZ resistant Pseudomonas aeruginosa 69 was determined; type: functional
Pseudomonas aeruginosa [11] = experiment: In vitro antibacterial activity against AZT resistant Pseudomonas aeruginosa 56 was determined; type: functional
Pseudomonas aeruginosa [12] = experiment: In vitro antibacterial activity against IPM resistant Pseudomonas aeruginosa 47 was determined; type: functional
Pseudomonas aeruginosa [13] = experiment: Antibacterial activity against clinically isolated Pseudomonas aeruginosa 67
Pseudomonas aeruginosa [14] = experiment: In vitro antibacterial activity against CAZ resistant Pseudomonas aeruginosa 47 was determined; type: functional
Pseudomonas aeruginosa [15] = experiment: In vitro antibacterial activity against IPM resistant Pseudomonas aeruginosa 59 was determined; type: functional
Pseudomonas aeruginosa [16] = experiment: In vitro antibacterial activity against AZT resistant Pseudomonas aeruginosa 59 was determined; type: functional
Pseudomonas aeruginosa [17] = experiment: In vitro antibacterial activity against Pseudomonas aeruginosa 69 was determined; type: functional
Pseudomonas aeruginosa [18] = experiment: In vitro antibacterial activity against IPM resistant Pseudomonas aeruginosa 69 was determined; type: functional
Pseudomonas aeruginosa [19] = experiment: In vitro antibacterial activity against IPM resistant Pseudomonas aeruginosa 56 was determined; type: functional
Escherichia coli = experiment: In vitro antibacterial activity against Escherichia coli NIH JC-2 bacteria was determined; type: functional
Pseudomonas aeruginosa [20] = experiment: In vitro antibacterial activity against Pseudomonas aeruginosa 56 was determined; type: functional
Pseudomonas aeruginosa [21] = experiment: In vitro antibacterial activity against Pseudomonas aeruginosa 59 was determined; type: functional
Pseudomonas aeruginosa [22] = experiment: In vitro antibacterial activity against Pseudomonas aeruginosa 47 was determined; type: functional
Klebsiella pneumoniae = experiment: In vitro antibacterial activity against Klebsiella pneumoniae NCTC-9632 bacteria was determined; type: functional

Compound | MIC (Pseudomonas aeruginosa [6]) [µg/mL] | MIC (Pseudomonas aeruginosa [8]) [µg/mL] | MIC (Escherichia coli) [µg/mL] | MIC (Klebsiella pneumoniae) [µg/mL] | ED50 (Mus musculus [3]) [mg/kg] | ED50 (Mus musculus [4]) [mg/kg] | MIC (Pseudomonas aeruginosa [13]) [µg/mL] | further results
Cc1nc(SCC2=C(C(=O)O)N3C(=O)[C@@H](NC(=O)/C(=N\OCc4cc(=O)c(O)cn4O)c4csc(N)n4)[C@H]3CS2)sc1CC(=O)O | 0.05 (≈ 0.0704 µM) | ≤ 0.025 | 0.1 (≈ 0.141 µM) | 0.05 (≈ 0.0704 µM) | 3.2 | 21.8 | 0.1 (≈ 0.141 µM) | MIC (Pseudomonas aeruginosa [1]): 25 µg/mL (≈ 35.2 µM); MIC (Pseudomonas aeruginosa [2]): 0.05 µg/mL (≈ 0.0704 µM); MIC (Pseudomonas aeruginosa [5]): 50 µg/mL (≈ 70.4 µM); MIC (Pseudomonas aeruginosa [7]): 25 µg/mL (≈ 35.2 µM); MIC (Pseudomonas aeruginosa [9]): 12.5 µg/mL (≈ 17.6 µM); MIC (Pseudomonas aeruginosa [10]): 50 µg/mL (≈ 70.4 µM); MIC (Pseudomonas aeruginosa [11]): 50 µg/mL (≈ 70.4 µM); MIC (Pseudomonas aeruginosa [12]): 25 µg/mL (≈ 35.2 µM); MIC (Pseudomonas aeruginosa [14]): 50 µg/mL (≈ 70.4 µM); MIC (Pseudomonas aeruginosa [15]): 50 µg/mL (≈ 70.4 µM); MIC (Pseudomonas aeruginosa [16]): 25 µg/mL (≈ 35.2 µM); MIC (Pseudomonas aeruginosa [17]): 3.13 µg/mL (≈ 4.41 µM); MIC (Pseudomonas aeruginosa [18]): 50 µg/mL (≈ 70.4 µM); MIC (Pseudomonas aeruginosa [19]): 25 µg/mL (≈ 35.2 µM); MIC (Pseudomonas aeruginosa [20]): 1.56 µg/mL (≈ 2.2 µM); MIC (Pseudomonas aeruginosa [21]): 1.56 µg/mL (≈ 2.2 µM); MIC (Pseudomonas aeruginosa [22]): 1.56 µg/mL (≈ 2.2 µM)
CC(C)(O/N=C(\C(=O)N[C@@H]1C(=O)N2C(C(=O)[O-])=C(C[n+]3ccccc3)CS[C@H]12)c1csc(N)n1)C(=O)O [CEFTAZIDIME] | 1.56 (≈ 2.85 µM) | 1.56 (≈ 2.85 µM) | 0.39 (≈ 0.714 µM) | 0.05 (≈ 0.0915 µM) | 31.7 | > 100 | 1.56 (≈ 2.85 µM) | MIC (Mus musculus [3]): 3.13 µg/mL (≈ 5.73 µM)

Further lines, with some results ahead:

MIC (Pseudomonas aeruginosa [6]) [µg/mL] | MIC (Pseudomonas aeruginosa [8]) [µg/mL] | MIC (Escherichia coli) [µg/mL] | MIC (Klebsiella pneumoniae) [µg/mL] | Compound | ED50 (Mus musculus [3]) [mg/kg] | ED50 (Mus musculus [4]) [mg/kg] | MIC (Pseudomonas aeruginosa [13]) [µg/mL] | further results
0.1 (≈ 0.157 µM) | ≤ 0.025 | 0.2 (≈ 0.313 µM) | ≤ 0.025 | Nc1nc(/C(=N/OCc2cc(=O)c(O)cn2O)C(=O)N[C@@H]2C(=O)N3C(C(=O)O)=C(CSc4nncs4)SC[C@H]23)cs1 (stereo in doubt) | – | – | – | –
≤ 0.025 | ≤ 0.025 | 0.05 (≈ 0.0735 µM) | ≤ 0.025 | Nc1nc(/C(=N/OCc2cc(=O)c(O)cn2O)C(=O)N[C@@H]2C(=O)N3C(C(=O)O)=C(CSc4nnnn4CC(=O)O)SC[C@H]23)cs1 (stereo in doubt) | – | – | – | –
0.39 (≈ 0.611 µM) | ≤ 0.025 | 0.2 (≈ 0.313 µM) | 0.1 (≈ 0.157 µM) | Nc1nc(/C(=N/OCc2cc(=O)c(O)cn2O)C(=O)N[C@@H]2C(=O)N3C(C(=O)O)=C(CSc4cnns4)SC[C@H]23)cs1 (stereo in doubt) | – | – | – | –
